In patent US12540141B2, “Spiropyrrolidine derived antiviral agents” (priority 2020, dated 2026):
Where two headings read alike, the source gives them in different places.

Legend:
[1] = test system: 229E human corona virus (hCoV); test: 229E Live Virus Assay (MRC-5 cells, CPE read by ATPlite); type: cell-based, hCoV-229E
SARS-CoV-2 3CL-protease = SARS-CoV-2 3CL-protease (Severe acute respiratory syndrome coronavirus 2, UniProt P0DTD1); test: SARS-CoV-2 3C-Like (3CL) Protease Fluorescence Assay (FRET); type: biochemical; conditions: SARS-CoV-2 3CL-protease 10 nM, 30 min preincubation at RT, substrate 40 μM
[2] = Human coronavirus 229E, MRC5, hCoV-229E live virus in MRC-5 cells, MOI 0.05, CPE by ATPlite, run in duplicate

| Structure (SMILES) | EC50 [1, 2] | IC50 (SARS-CoV-2 3CL-protease) | EC50 ([1]; hCoV-229E live virus in MRC-5 cells, MOI 0.05, CPE by ATPlite, run in duplicate) | EC50 [1] |
| --- | --- | --- | --- | --- |
| COc1cc(Cl)cc(C(=O)N(C)[C@@H](CC(C)C)C(=O)N2C[C@]3(C[C@H]2C#N)C(=O)Nc2ccccc23)c1 [Example 180] | < 0.1 µM | < 0.1 µM |  |  |
| CC(C)C[C@@H](C(=O)N1C[C@]2(C[C@H]1C#N)C(=O)Nc1ccccc12)N(C)C(=O)c1ccc2ccc(Br)cc2c1 [Example 230] | < 0.1 µM | 0.1 to 1 µM |  |  |
| CC(C)C[C@@H](C(=O)N1C[C@]2(C[C@H]1C#N)C(=O)Nc1ccccc12)N(C)C(=O)c1ccc(-c2ccccc2)cn1 [Example 232] | < 0.1 µM | 0.1 to 1 µM |  |  |
| COc1cc(C(=O)N(C)[C@@H](CC(C)C)C(=O)N2C[C@]3(C[C@H]2C#N)C(=O)Nc2ccccc23)cn2cc(C(F)F)nc12 [Example 255] |  |  | < 0.1 µM |  |
| CC(C)C[C@@H](C(=O)N1C[C@]2(C[C@H]1C#N)C(=O)Nc1ccccc12)N(C)C(=O)c1cc(OC2CC2)c2c(c1)=NC(C1CC1)N=2 (stereo partly drawn) [Example 307] | 0.1 to 1 µM | 0.1 to 1 µM |  |  |
| COc1cc(C(=O)N(C)[C@@H](CC(C)C)C(=O)N2C[C@]3(C[C@H]2C#N)C(=O)Nc2ccccc23)cc2c1=NC(C1CC1)N=2 (stereo partly drawn) [Example 308] | 0.1 to 1 µM | < 0.1 µM |  |  |
| CN(C(=O)[C@@H](O)c1ccc(F)cc1)[C@@H](CC1CC1)C(=O)N1C[C@]2(C[C@H]1C#N)C(=O)Nc1ccccc12 [Example 414, (S)—N—((S)-1-((3R,5′S)-5′-cyano-2-oxospiro[indoline-3,3′-pyrrolidin]-1′-yl)-3-cyclopropyl-1-oxopropan-2-yl)-2-(4-fluorophenyl)-2-hydroxy-N-methyl acetamide] | < 0.1 µM | < 0.1 µM |  |  |
| CN(C(=O)[C@H](O)c1ccc(F)cc1)[C@@H](CC1CC1)C(=O)N1C[C@]2(C[C@H]1C#N)C(=O)Nc1ccccc12 [Example 415] | < 0.1 µM | < 0.1 µM |  |  |
| [2H]C([2H])([2H])N(C(=O)[C@H](O)c1ccc(F)cc1)[C@@H](CC1CC1)C(=O)N1C[C@]2(C[C@H]1C#N)C(=O)Nc1ccccc12 [Example 422] | < 0.1 µM | < 0.1 µM |  |  |
| C[C@H](OC(=O)N[C@@H](CC(C)(C)C)C(=O)N1C[C@]2(C[C@H]1C#N)C(=O)Nc1ccc(Cl)cc12)c1ccc(F)cc1 [Example 494] |  |  |  | 0.1 to 1 µM |
